Measured values taken from ChEMBL document CHEMBL1151641, “Antitumor agents, 71. Nudaphantin, a new cytotoxic germacranolide, and elephantopin from Elephantopus nudatus” (1985).
Values after ≈ are worked out from the molar mass of the structure shown.

How the values were obtained:
Assay type in all cases: functional
[1] = test system: KB; experiment: Cytotoxicity against human KB cells
[2] = test system: P388; experiment: In vivo antileukemic activity against mouse P388 cells at 40 mg/kg relative to control
[3] = test system: P388; experiment: In vivo antileukemic activity against mouse P388 cells at 10 mg/kg relative to control

SMILES | EC50 ([1]; Homo sapiens, KB, read-out: ED50 (the source's name)) [µg/mL] | ED50 [1] [µg/mL] | T/C [2] [%] | T/C [3] [%]
C=C(C)C(=O)O[C@H]1CC2=C[C@@H](C[C@@]3(C)O[C@@H]3[C@H]3OC(=O)C(=C)[C@@H]31)OC2OCC (some centres undefined) [NUDAPHANTIN] | 0.31 (≈ 0.794 µM) |  |  | 
C=C(C)C(=O)O[C@H]1CC2=C[C@@H](C[C@@]3(C)O[C@@H]3[C@H]3OC(=O)C(=C)[C@@H]31)OC2=O [ELEPHANTOPIN] |  | 0.32 (≈ 0.888 µM) | 171 | 160
